We go through eleven compounds from ChEMBL document CHEMBL4680267, “Design, synthesis and biological evaluation of 7-substituted 4-phenyl-6H-imidazo[1,5-a]thieno[3,2-f] [1,4]diazepines as safe anxiolytic agents” (Eur J Med Chem, 2020).

Data set [1] relates to Mus musculus. Put plainly: Anti-amnesic activity in mouse model of scopolamine-induced cognitive deficit assessed as latency time to enter dark compartment in retension session at 30 mg/kg, po and measured after 24 hrs by passive avoidance test (reference value: 46.2 +/- 8.9 secs). The format is functional.
Data set [2] is described as follows: Effect on explorative activity in mouse assessed as exploration of holes at 30 mg/kg, po measured after 30 mins by hole-board test. The conditions noted are these: in vivo, 0.5 h. It is filed as ADME, organism-based.
In data set [3] the test system is Mus musculus. Put plainly: Anxiolytic activity in mouse assessed as increase in time spent in lighted compartment at 10 mg/kg, po measured after 30 mins by light-dark box test (reference value: 122.3 +/- 8.5 secs). The format is functional. The conditions noted are these: 0.5 h.
Data set [4] is described as follows: Hypnotic activity in mouse assessed as phenobarbital induced sleep induction time at 30 mg/kg, po administered 30 mins prior to phenobarbital challenge and measured for 30 mins (reference value: 4.4 +/- 1.1 min). The format is ADME, organism-based. The conditions noted are these: in vivo, 1 h, time 60 min.
A short description of data set [5]: Effect on locomotor activity in mouse at 30 mg/kg, po measured after 30 mins by hole-board test. The format is ADME, organism-based. The settings on record: in vivo, 0.5 h.
The test system of data set [6] is Mus musculus. Put plainly: Anti-amnesic activity in mouse model of scopolamine-induced cognitive deficit assessed as latency time to enter dark compartment in retension session at 10 mg/kg, po and measured after 24 hrs by passive avoidance test (reference value: 46.2 +/- 8.9 secs). It is filed as functional.
Data set [7] is described as follows: Displacement of [3H]-Flumazenil from Central type benzodiazepine receptor in rat cerebral cortex membrane incubated for 90 mins by liquid scintillation counting method. The format is cell membranes. For orientation: In a radioligand displacement assay an active substance lowers the binding of a labelled ligand.
Data set [8] in a line: Effect on motor coordination in mouse assessed as number of falls from rotarod at 30 mg/kg, po measured for 30 mins by rotarod test (reference value: 2.2 +/- 0.2). It is filed as ADME, organism-based. The conditions noted are these: in vivo, 0.5 h. On the technique in general: The rotarod test checks motor coordination on a turning rod.
Data set [9] in a line: Hypnotic activity in mouse assessed as phenobarbital induced sleep endurance time at 30 mg/kg, po administered 30 mins prior to phenobarbital challenge and measured for 30 mins (reference value: 27.4 +/- 2.3 min). It is filed as ADME, organism-based. The conditions noted are these: in vivo, 1 h, time 60 min.
The test system of data set [10] is Mus musculus. Put plainly: Anti-amnesic activity in mouse model of scopolamine-induced cognitive deficit assessed as latency time to enter dark compartment in training session at 30 mg/kg, po and measured for 30 mins by passive avoidance test (reference value: 14.2 +/- 2.2 secs). The format is functional. The conditions noted are these: 0.5 h.
For data set [11], the system named is Mus musculus. Put plainly: Anticonvulsive activity in mouse assessed as protection against pentylenetetrazole-induced seizure at 30 mg/kg, po administered 30 mins prior to pentylenetetrazole challenge and measured for 30 mins. The conditions noted are these: time 60 min, 1 h. The format is functional.
For another data set, the species on record is Rattus norvegicus. Put plainly: Displacement of [3H]-Flumazenil from Central type benzodiazepine receptor in rat cerebral cortex membrane at 10 uM incubated for 90 mins by liquid scintillation counting method relative to control. The format is cell membranes.
Data set [12] deals with Mus musculus. Put plainly: Anti-amnesic activity in mouse model of scopolamine-induced cognitive deficit assessed as latency time to enter dark compartment in training session at 10 mg/kg, po and mesured for 30 mins by passive avoidance test (reference value: 14.2 +/- 2.2 secs). The settings on record: 0.5 h. The format is functional.
In data set [13] the test system is Mus musculus. Put plainly: Anxiolytic activity in mouse assessed as increase in time spent in lighted compartment at 30 mg/kg, po measured after 30 mins by light-dark box test (reference value: 122.3 +/- 8.5 secs). The settings on record: 0.5 h. The format is functional.
Data set [14] is described as follows: Displacement of [3H]flunitrazepam from Benzodiazepine receptor in Sprague-Dawley rat cerebral cortex membrane measured after 30 mins by liquid scintillation spectrometry analysis. The format is cell membranes.
Data set [15] concerns Mus musculus. Put plainly: Anticonvulsive activity in mouse assessed as protection against pentylenetetrazole-induced seizure at 10 mg/kg, po administered 30 mins prior to pentylenetetrazole challenge and measured for 30 mins. The format is functional. The conditions noted are these: time 60 min, 1 h.
Data set [16] is described as follows: Displacement of [3H]diazepam from Benzodiazepine receptor in rat cerebral cortex membrane. The format is cell membranes.
Data set [17] can be described thus: Hypnotic activity in mouse assessed as phenobarbital induced sleep endurance time at 2 mg/kg, sc administered 30 mins prior to phenobarbital challenge and measured for 30 mins (reference value: 27.4 +/- 2.3 min). It is filed as ADME, organism-based. The conditions noted are these: in vivo, 1 h, time 60 min.
The nature of data set [18]: Displacement of [3H]flunitrazepam from Benzodiazepine receptor in Sprague-Dawley rat cerebral cortex membrane preincubated for 10 mins followed by [3H]flunitrazepam addition and measured after 60 mins by liquid scintillation spectroscopy analysis. The format is cell membranes.

As usually defined, the IC50 is the point on the concentration scale where inhibition reaches its midpoint. The low end stands for higher potency, the high end for lower potency. By inhibition is commonly meant the share of the control response that was lost under treatment. As for `CC(C)(C)OC(=O)c1ncn2c1CN=C(c1ccccc1)c1ccsc1-2`, the Time with Mus musculus [1] is given as 70.3 s; with Mus musculus [3], 113.6 min; in data set [4] it was 4.4 min; in the data set with Mus musculus [6], 46.9 s; in data set [9], 28.8 min; in the data set on Mus musculus [10], 17.2 s. The Time in the data set with Mus musculus [12] is given as 15.4 s; in the data set with Mus musculus [13] it was 151.4 s. Besides, the Activity was found to be 15.9 in data set [2], 33.4 in data set [5], 2.4 in [8] and 20% with Mus musculus [11]. The same compound showed an IC50 in data set [7] of 5.19 nM. In the data set listed under Rattus norvegicus, this compound registered an inhibition above 80%.
`Cc1nnc2n1-c1sc(Br)cc1C(c1ccccc1Cl)=NC2` [BROTIZOLAM] registered an IC50 in data set [14] of 2.6 nM.
Regarding `CN1C(=O)CN=C(c2ccccc2)c2cc(Cl)ccc21` [DIAZEPAM], the Activity in the data set with Mus musculus [15] is 100%. The Time in the data set with Mus musculus [3] came to 165.6 min. In data set [7], this compound returned an IC50 of 18.5 nM.
Consider `CCOC(=O)c1ncn2c1CN=C(c1ccccc1)c1ccsc1-2`, for which the Time in the data set with Mus musculus [1] came out at 88.6 s; with Mus musculus [3], 131.3 min; in data set [4] it was 3.9 min; in the data set with Mus musculus [6], 54.1 s; in data set [9], 23.8 min; in the data set with Mus musculus [10] it was 18.1 s. Also, the Time stood at 13.6 s in the data set with Mus musculus [12] and 166.2 s with Mus musculus [13]. The Activity was found to be 19.1 in [2], 28.2 in data set [5], 1.9 in [8] and 10% in the data set on Mus musculus [11]. For the same compound, the IC50 in data set [7] worked out at 11.7 nM. This compound had an inhibition in the data set listed under Rattus norvegicus above 80%.
In turn, `CCOC(=O)c1ncn2c1CN(C)C(=O)c1cc(F)ccc1-2` [FLUMAZENIL] had an IC50 in data set [16] of 2.3 nM.
With `CC(N)Cc1ccccc1` (configuration not stated) [AMPHETAMINE], in [17], the Time is recorded as 22.2 min.
Consider `CCOC(=O)c1ncn2c1CN=C(c1ccc(F)cc1)c1ccsc1-2`, for which the Time is on record as 89.2 s in the data set on Mus musculus [1]; 109.8 min with Mus musculus [3]; 5.5 min in data set [4]; 55.8 s in the data set with Mus musculus [6]; 29.2 min in data set [9]; 14.7 s in the data set on Mus musculus [10]. The Time with Mus musculus [12] came out at 13.9 s; with Mus musculus [13], 151.2 s. Moreover, the Activity in [2] was found to be 15.8; in data set [5], 34.5; in data set [8], 2.2; in the data set on Mus musculus [11], 0%. Further, the IC50 in data set [7] is 16.2 nM. This compound yielded an inhibition in the data set filed under Rattus norvegicus above 80%.
`CC(C)(C)OC(=O)c1ncn2c1CN=C(c1ccc(F)cc1)c1ccsc1-2`: the Activity with Mus musculus [15] is given as 20%; in data set [2] it was 17.5; in data set [5] it was 26.7; in data set [8] it was 2.1; in the data set on Mus musculus [11], 40%. Also, the Time with Mus musculus [1] is 85.9 s; with Mus musculus [3], 145.6 min; in data set [4] it was 4.7 min; in the data set on Mus musculus [6], 67.1 s; in data set [9], 27.2 min; in the data set with Mus musculus [10] it was 16.5 s. Further, the Time is 12.8 s in the data set with Mus musculus [12] and 169.4 s with Mus musculus [13]. In [7], this compound gave an IC50 of 10.2 nM. The compound further had an inhibition in the data set filed under Rattus norvegicus above 80%.
`CCc1cc2c(s1)-n1c(C)nnc1CN=C2c1ccccc1Cl` [ETIZOLAM] gave an IC50 in [18] of 4.5 nM.
`CCOC(=O)c1ncn2c1CN=C(c1cccc(F)c1)c1ccsc1-2`: the Time with Mus musculus [1] is 75.3 s; in the data set on Mus musculus [3], 111.3 min; in [4], 5.2 min; with Mus musculus [6], 39.2 s; in data set [9], 24.9 min; in the data set on Mus musculus [10], 17.4 s. Further, the Time with Mus musculus [12] amounted to 14.9 s; with Mus musculus [13] it was 163.9 s. The Activity turned out to be 15.3 in [2], 27.3 in [5], 2.5 in data set [8] and 20% with Mus musculus [11]. The same compound gave an IC50 in data set [7] of 8.66 nM. The inhibition in the data set filed under Rattus norvegicus is above 80%.
Take `CC(C)(C)OC(=O)c1ncn2c1CN=C(c1cccc(F)c1)c1ccsc1-2`: the Time in the data set with Mus musculus [1] amounted to 72.5 s; with Mus musculus [3], 118.3 min; in data set [4] it was 3.5 min; in the data set with Mus musculus [6], 51.4 s; in data set [9] it was 25.9 min; in the data set on Mus musculus [10], 15.6 s. Besides, the Time is on record as 18.2 s with Mus musculus [12] and 143.8 s with Mus musculus [13]. The Activity in data set [2] was 17.5; in data set [5], 29.5; in [8], 1.9; with Mus musculus [11], 0%. Further, in data set [7], the IC50 was 9.61 nM. Besides, the inhibition in the data set listed under Rattus norvegicus was above 80%.
